Measured values: US5332734A, “Oxazinone derivative” (Japan Tobacco, Incorporated, priority 1991, dated 1994)

Assays:
Format in all cases: biochemical
[1] = target: T1, human leukocyte elastase (HLE) (Homo sapiens, UniProt P08246); assay: HLE inhibitory activity; details: HLE 5.63 nM, substrate 0.2625 mM, pH 8.6, 37° C.
T1 construct: applying a density gradient centrifugal operation so as to obtain neutrophils; from tissue; host or cells: neutrophils from human venous blood
T1 sequence (P08246 30-267): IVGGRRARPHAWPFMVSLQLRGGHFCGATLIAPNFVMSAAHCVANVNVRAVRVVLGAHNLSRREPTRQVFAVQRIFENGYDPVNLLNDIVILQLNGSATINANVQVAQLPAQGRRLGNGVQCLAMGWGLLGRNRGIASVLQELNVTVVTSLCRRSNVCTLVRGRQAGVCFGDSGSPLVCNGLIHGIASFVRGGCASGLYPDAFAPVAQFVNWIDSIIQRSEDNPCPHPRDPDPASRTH
Method: (§1) Inhibotory activities of the oxadinone derivative of the present invention against human leukocyte elastase (HLE), human sputum elastase (HSE), human cathepsin G (HCG), bovine pancreatic α-chymotrypsin (CYT) and bovine pancreatic trypsin (TRY) were measured as follows:
(1) Measurement of HLE Inhibitory Activity
A buffy coat was obtained by subjecting human vein blood to centrifugal separation, followed by adding distilled water to the buffy coat thus obtained for performing a low tension treatment so as to collapse erythrocytes. A mixture consisting of 10 parts of a 33.4% Conrey 400 solution and 24 parts of 9% of Ficoll solution was added to the residual blood cell component, followed by applying a density gradient centrifugal operation so as to obtain neutrophils. The neutrophil fraction was washed three times with Hanks' buffer so as to recover cells, which were frozen at -80° C. for preservation until the cells were used. The cells preserved under a frozen state were thawed with warm water of 37° C. and suspended in the lysis buffer (0.1M Tris-HCl pH 7.5, 1M MgCl2, 0.1% Brij 35), the amount of the buffer being 9 times as much as that of the cells. Then, the suspended cells were collapsed with polotron while cooling the suspension with ice. Then, the suspension was subjected to a centrifugal separation at 100,000×g for one hour so as to remove the precipitate. Also, a buffer (5 mM Tris-HCl pH 7.5, 1M NaCl, 1.1% Brij 35) was added to the supernatant in an amount twice as much as the supernatant so as to prepare a crude solution of an enzyme extract. The crude solution of an enzyme extract was adsorbed on an aprotinin affinity column. Further, the active fraction eluted with a 50 ml glycine-HCl solution (pH 3.3, 1M NaCl, 0.1% Brij 35) was passed through a MONO S ion-exchange chromatography. The active fraction eluted with a 2M NaCl linear gradient was dialyzed and, then, subjected to a freeze-drying so as to prepare an enzyme sample.
A test compound to be detected was dissolved in DMSO (for fluorometry) so as to prepare solutions of various concentrations. Then, the solution of 0.2M Tris-HCl (pH 9.6) was added to each of the solutions in an amount twice as much as the solution so as to prepare a test solution. On the other hand, a synthetic substrate (MeOSuc-Ala-Pro-Val-pNA; FUNAKOSHI) was dissolved in DMSO, followed by adding 0.2M tris-HCl solution (pH 8.6) to the solution in an amount twice as much as the solution so as to prepare a substrate solution.
A microplate (NUNK) provided with 96 wells was used for the reaction. The reaction was repeatedly carried out 6 times for each concentration of the test compound. Each of 140 μl of the enzyme solution (0.2M Tris-HCl, pH 8.6), 30 μl of the test material solution and 30 μl of the substrate solution was pre-incubated for 10 minutes at 37° C. for each well of the microplate. After incubation of a mixture of the enzyme solution and the test material solution for 10 minutes, the substrate solution was added so as to carry out the enzyme reaction. For determining the substrate decomposition, the absorbance (405 run) of the released pNA was measured by a microplate reader (MTP-100; CORONA), and the substrate decomposition was calculated on the basis of the average value of the absorbances repeatedly measured 6 times. The inhibitory concentration of the test compound relative to the decomposition amount of the substrate in the case where the test compound was not added was obtained as IC50 value.

[2] = target: T2, bovine pancreatic α-chymotrypsin (CYT) (Bos taurus, UniProt P00766); assay: CYT inhibitory activity; details: CYT 3.4 nM, substrate 0.273 mM, pH 8.0
T2 construct: purchased Sigma Inc; host or cells: bovine pancreas (by its name)
Method: as §1
(4) Measurement of CYT Inhibitory Activity
a) Enzyme Preparing Method Bought from Sigma Inc.
(§2) Employed was a measuring method similar to that described previously in conjunction with the measurement of the HLE inhibiting activity, except that used was a buffer solution of pH 8.0. The final concentrations of CYT and the synthetic substrate (Ac-Ala-Ala-Pro-Phe-pNA; FUNAKOSHI) in the solution of the enzyme reaction were 3.4 nM and 0.273 mM, respectively.

human cathepsin G (HCG) = target: T3, human cathepsin G (HCG) (Homo sapiens, UniProt P08311); assay: HCG inhibitory activity; details: HCG 50 nM, substrate 0.5 mM, pH 7.5
T3 construct: purchased Cosmo Bio Inc
T3 sequence (P08311 21-255): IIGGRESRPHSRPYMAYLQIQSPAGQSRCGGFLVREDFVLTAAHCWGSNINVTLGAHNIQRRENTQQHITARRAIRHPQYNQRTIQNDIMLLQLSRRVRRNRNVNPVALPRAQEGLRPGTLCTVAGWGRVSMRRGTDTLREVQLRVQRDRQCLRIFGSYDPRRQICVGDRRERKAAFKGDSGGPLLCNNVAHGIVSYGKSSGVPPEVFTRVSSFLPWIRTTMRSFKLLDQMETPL
Method: as §1
(3) Measurement of HCG Inhibitory Activity
a) Enzyme Preparing Method Bought from Cosmo Bio Inc.
as §2, with “7.5.” for “8.0.”, “HCG” for “CYT”, “50” for “3.4”, “0.5” for “0.273”

Row | Compound | IC50 [1] [nM] | IC50 [2] [nM] | IC50 (human cathepsin G (HCG)) [nM]
1 | Cc1cccc2nc([C@@H](NC(=O)COC3c4ccccc4-c4ccccc43)C(C)C)oc(=O)c12 [Compound 3, 2-{1(S)-[(9-fluorenyloxyacetyl)amino]-2-methylpropyl}-5-methyl-4H-3,1-benzoxazin-4-one] | 510 | 3430 | > 27500
2 | Cc1cccc2nc([C@@H](NC(=O)CNC(=O)C3c4ccccc4-c4ccccc43)C(C)C)oc(=O)c12 [Compound 4, 2-[1(S)-[[N-(9-fluorenylcarbonyl)glycyl]amino]-2-methylpropyl]-5-methyl-4H-3,1-benzoxazin-4-one] | 750 | 6580 | 11300
3 | CC(=O)N(CCC(=O)N[C@H](c1nc2cccc(C)c2c(=O)o1)C(C)C)C1c2ccccc2-c2ccccc21 [Compound 5, 2-[1(S)-[[N-acetyl-N-(9-fluorenyl)-β-alanyl]amino]-2-methylpropyl]-5-methyl-4H-3,1-benzoxazin-4-one] | 240 | 1960 | > 12300
4 | Cc1cccc2nc([C@@H](NC(=O)C=C3c4ccccc4-c4ccccc43)C(C)C)oc(=O)c12 [Compound 6, 2-{1(S)-[(fluorene-Δ^9, ^α -acetyl)amino]-2-methylpropyl}-5-methyl-4H-3,1-benzoxazin-4-one] | 640 |  | 

The remaining lines, values ahead:

Row | IC50 [1] [nM] | IC50 [2] [nM] | IC50 (human cathepsin G (HCG)) [nM] | Compound
5 | 1280 | > 7590 | > 7590 | Cc1cccc2nc(CNC(=O)COC3c4ccccc4-c4ccccc43)oc(=O)c12 [Compound 7, 2-[(9-fluorenyloxyacetyl)aminomethyl]-5-methyl-4H-3,1-benzoxazin-4-one]
6 | 1000 |  |  | Cc1cccc2nc(C(C)(C)NC(=O)COC3c4ccccc4-c4ccccc43)oc(=O)c12 [Compound 8, 2-{1-[(9-fluorenyloxyacetyl)amino]-1-methylethyl}-5-methyl-4H-3,1-benzoxazin-4-one]
